Results on two compounds are retold here after patent US10214567B2, “Tagged hepadnavirus E antigen and its use in screening antiviral substances” (Drexel University, priority 2014, dated 2019).

The experiment deals with HA-HBeAg production from HepBHAe13 cells. In words: HA-HBeAg CLIA in HepBHAe13 cells treated with cccDNA formation inhibitors (96-well-plate). In kind it is cell-based, Hepatitis B virus (HBV). As to conditions: tetracycline removed, compounds at indicated concentrations, 0.5% DMSO, day 12 post treatment (FIG. 11). From the text: According to another aspect of the present invention, the in vitro assay method can be used to evaluate compounds/candidate molecules that suppress cccDNA formation. Briefly, cells can be seeded into culture wells and tetracycline can be omitted at the day when cell monolayer becomes confluent. Simultaneously, test compound can be added and tagged hepadnavirus e antigen (like HA-HBeAg) in the medium can be measured by ELISA at the end of treatment (approximately 6 days). […] As an expanding aspect of this in vitro assay method, it is worth to note that the reduction of tagged hepadnavirus e antigen (like HA-HBeAg) in this assay may also indicate that the compound has the potential to inhibit hepadnavirus (like HBV) DNA replication. Such possibility can be investigated through direct measurement of viral core DNA by Southern blot and/or qPCR. […]
FIG. 11. […] At day 12 post treatment, culture fluid was subjected to HA-HBeAg CLIA and readout was plotted as percentage (mean±SD) to control.
For chemiluminescence enzyme immunoassay (CLIA) detection of HA-tagged HBeAg, high sensitivity streptavidin coated plate (Black, cat#: 15525, Thermo Scientific) was washed by PBST (PBS plus 0.05% Tween 20) for 3 times, and then incubated with 50 μl of anti-HA-biotin (cat#: A00203, Genscript; 5 μg/ml in PBS) at RT for 30 min, followed by wash with 200 μl PBST for 3 times. […] The plate was read on a luminometer.

Molecules are shown by their SMILES. Entries after “also recorded” stand apart in the source; their conditions may differ.

Turning to `Cc1nc2cc(NC(=O)c3ccc(S(=O)(=O)N(C)Cc4ccccc4)cc3)ccc2s1` [CCC-0346], the “HA-HBeAg level in culture fluid (CLIA, percentage to control)” value was “dose-dependent inhibition of HA-HBeAg production; also recorded: dose dependently reduced the HA-HBeAg level”.
Then `O=C(CN(c1cc(C(F)(F)F)ccc1Cl)S(=O)(=O)c1ccccc1)NCc1ccncc1` [CCC-0975], with “dose-dependent inhibition of HA-HBeAg production; also recorded: dose dependently reduced the HA-HBeAg level”.
